The values below come from EP1007024B1 (Pfizer Products Inc., priority 1997, dated 1999).

Molecules are shown by their SMILES. Structures can show the parent of a compound that is named as a salt. Where two headings read alike, the source gives them in different places.

Data set [1] in a line: Screening test for inhibition of precipitation or gelation of sertraline lactate when chloride is added. The class given is physicochemical.
Experimental: Sodium chloride was then added (as a concentrated solution) and the result observed. An excipient was considered beneficial if the solution remained clear and fluid. The more chloride that could be added to an excipient solution with the solution remaining dear, the more beneficial was the excipient.
Data set [2] can be described thus: physchem. Particulars: water.
Data set [3] is described as follows: Screening of solubilizers for sertraline lactate solubility with and without chloride. As to conditions: water.
A short description of data set [4]: physchem. As to conditions: water, Sertraline Lactate Solubility, in water, excipient None.
Data set [5] is described as follows: Pharmacokinetics of 200 mg sertraline delivered to various portions of the gastrointestinal tract (four-way crossover). The class given is in vivo. As to conditions: human, plasma.
Experimental: Dosing was via (1) oral tablets, or (2) infusion of a solution through a nasoenteric tube into the stomach, duodenum, or ileocecal region of the small intestine, or (3) infusion into the transverse colon via anal intubation.
The infusions were administered as a 2 mg/ml solution at a rate of 20 ml/min for 5 min.
Analysis was carried out by capillary gas chromatography with electron capture detection.
A short description of another data set: clinical. Particulars: human, in vivo, 200 mg.
The nature of data set [6]: Side effects by visual analogue scales and PK/PD plots (Study I, Study II). The class given is in vivo, human.
Experimental: (§1) In a subset of a larger double-blind, randomized, placebo-controlled parallel group study, healthy male human subjects were divided into two groups (Study 1). […] The tablets were administered with 50 ml water. Group B received two placebo tablets. All subjects were dosed after an overnight fast.
Prior to dosing and each blood sampling time, each subject filled out a questionnaire, which consisted of a series of "Visual Analogue Scales" in which the subject was required to rate, on a scale of 0-10, the severity of certain potential side effects. The subjects were instructed that "0" indicated an absent effect and "10" indicated the worst possible effect The subjects were instructed to interpolate between 0 and 10 for moderate side effects.
A total of 30 subjects completed Study I: 15 each in Groups A and B. For each side effect evaluated at 30 time points, a total of 900 individual visual-analogue-scale evaluations were obtained.
The conditions of data set [7]: oral administration of known immediate-release dosage forms, plasma; cited from earlier work.
The conditions of data set [8]: male, human, in vivo.
Experimental: as §1
(§2) Analysis was carried out by capillary gas chromatography with electron capture detection. […] Tmax is the time at which Cmax is achieved.
(§3) The data from these four subjects were not included in the pharmacokinetic averages.
[9] abbreviates: Group A, Ileocecal Infusion of 2 mg/ml solution.
[10] abbreviates: Group A, Stomach Infusion of 2 mg/ml solution.
Where [11] appears, read: Group B, Colonic Infusion of 2 mg/ml solution.
Where [12] appears, read: Group B, Duodenal Infusion of 2 mg/ml solution.

Experimental for clinical: as §1, §2, §3

For `O=C1O[C@H]([C@@H](O)CO)C(O)=C1O` [Ascorbic acid], the “Observation After NaCI Addition” value in data set [1] (sertraline lactate with excipient, NaCl 100 mM) is “predpitate”.
In the case of `N[C@@H](Cc1c[nH]cn1)C(=O)O` [Histidine], the “Observation After NaCI Addition” value in [1] (sertraline lactate with excipient, NaCl 150 mM) is “slight precipitate”.
A word on the solubility: it is how much of the substance goes into solution per volume. A lower solubility goes with a poorly soluble substance. Consider `CN[C@H]1CC[C@@H](c2ccc(Cl)c(Cl)c2)c2ccccc21` [sertraline hydrochloride], for which the solubility in “physchem [2]” was determined as 2.5 mg/mL.
In the case of `CN[C@H]1CC[C@@H](c2ccc(Cl)c(Cl)c2)c2ccccc21` [sertraline lactate], the “Observation After NaCI Addition” value in [1] (sertraline lactate in water alone (control), NaCl 38 mM) is given as “gel/precipitate”. Besides, the solubility is 125 mg/mL in [3] and around 125 mg/mL in the data set “physchem [4]”.
As usually defined, the Cmax is the peak of the concentration-time curve. The Tmax is the time from dosing to the highest level. In general, AUC refers to concentration integrated over time. Lower therefore signals low exposure. Consider `CN[C@H]1CC[C@@H](c2ccc(Cl)c(Cl)c2)c2ccccc21` [sertraline], for which the Cmax was 27.3 ng/mL in data set [5] (setting [9]); 35.6 ng/mL in [5] (setting [10]); 10.9 ng/mL in data set [5] (Group B, Colonic Infusion (transverse colon) of 2 mg/ml solution); 48.8 ng/mL in [5] (setting [12]); 39.9 ng/mL in data set [5] (po, Group A, Oral Tablet (two 100 mg immediate release tablets), group average); 44.7 ng/mL in data set [5] (po, Group B, Oral Tablet (two 100 mg immediate release tablets)). Further, the Cmax in the data set “clinical” (male) was around 70 ng/mL. The Tmax in [5] (setting [9]) was 5 h; in data set [5] (setting [10]) it was 7 h; in data set [5] (setting [11]), 4.4 h; in data set [5] (setting [12]), 3.7 h; in data set [5] (po, Group A, Oral Tablet, group average), 7 h; in [5] (po, Group B, Oral Tablet) it was 6.7 h. Besides, the Tmax in [7] is 6 to 7 h. Also, the AUC in [5] (setting [11]) was determined as 179 ng·h/mL; in data set [5] (setting [12]), 1270 ng·h/mL; in data set [5] (po, Group B, Oral Tablet), 1150 ng·h/mL; in “clinical” it was 1740 ng·h/mL. The “side effect score for diarrhea vs plasma sertraline concentration curve” value in [6] (Study 1, 200 mg bolus dose) is on record as “clockwise hysteresis”. Moreover, the “PK/PD plot, average visual analogue score for nausea vs plasma sertraline concentration” value in data set [6] (Study I, Group A, 200 mg bolus dose, Figure 1) was “clockwise hysteresis”. Besides, the “subjects with emesis (regurgitation)” value in data set [6] (Study II, 200 mg dose group) was “Four and four”. Further, the “average Tmax” value in [8] stood at 6 h.
